Earlier results on 1 molecule are cited in EP4108230A1, “NEW DRY POWDER COMPOSITION OF TIOTROPIUM FOR INHALATION” (Laboratoires SMB, priority 2021, dated 2022).

SMILES strings stand for the structures.

Consider `C[N+]1(C)[C@@H]2C[C@@H](OC(=O)C(O)(c3cccs3)c3cccs3)C[C@H]1[C@@H]1O[C@@H]12` [Tiotropium bromide, (1α, 2β, 4 β, 5α, 7β)-7-[(Hydroxydi-2-thienylacetyl)oxy]-9,9-dimethyl-3-oxa-9-azoniatricyclo[3.3.1.02,4] nonane bromide monohydrate], for which the solubility in methanol result (methanol) was “soluble”. In addition, the solubility in water result (water) is given as “sparingly soluble”.
